Where only a bound is given, the exact number is not on record here.

One test concerns the target T1, A2-adenosine receptor (Rattus norvegicus, UniProt P30543).
T1 construct: from tissue
The experiment in a line: Adenosine A2 receptor binding (method of Bruns et al.). As to the method: (§1) IC50 values for A1 -adenosine receptor binding is determined according to the method of Goodman et al. [Mol. Pharmacol. 21:329-35, 1982]. IC50 values for A2 -adenosine receptor binding is determined according to the method of Bruns et al. [Mol. Pharmacol. 29:331-46, 1986].

A further test concerns the target A1-adenosine receptor. Nature of the test: Adenosine A1 receptor binding (method of Goodman et al.). As to the method: as §1

T1 sequence (P30543 whole entry): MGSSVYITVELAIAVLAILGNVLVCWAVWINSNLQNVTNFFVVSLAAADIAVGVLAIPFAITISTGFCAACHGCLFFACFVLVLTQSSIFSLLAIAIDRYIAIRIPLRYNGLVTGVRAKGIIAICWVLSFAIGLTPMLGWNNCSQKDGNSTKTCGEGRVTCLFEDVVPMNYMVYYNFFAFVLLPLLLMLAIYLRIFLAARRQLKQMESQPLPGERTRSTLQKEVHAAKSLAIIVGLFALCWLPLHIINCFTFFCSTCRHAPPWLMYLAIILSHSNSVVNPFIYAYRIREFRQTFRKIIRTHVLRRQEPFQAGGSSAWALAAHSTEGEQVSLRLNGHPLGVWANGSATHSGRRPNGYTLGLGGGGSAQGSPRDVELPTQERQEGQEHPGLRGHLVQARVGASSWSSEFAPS

On to `CCCn1c(=O)c2nc(C(C)Cc3ccc(OCC(=O)NCCN)cc3)[nH]c2n(CCC)c1=O` (single isomer, unassigned; (+)) [Compound 101993, (+)-N (2-Aminoethyl)-2-[4-[2-(2,3,6,9-tetrahydro-1,3-dipropyl-2,6-dioxo-1H-purin-8-yl)propyl]phenoxy]-acetamide], for which the IC50 at A2-adenosine receptor stood at 1.8 µM; on A1-adenosine receptor, 0.06 µM.
Taken in the same sequence, the figures for `CCCn1c(=O)c2nc(C(C)Cc3ccc(OCC(=O)NCCN)cc3)[nH]c2n(CCC)c1=O` (single isomer, unassigned; (-)) [Compound 100991, (-)-N-(2-Aminoethyl)-2-[4-[2-(2,3,6,9-tetrahydro-1,3-dipropyl-2,6-dioxo-1H-purin-8-yl)propyl]phenoxy]-acetamide] were 0.3 µM and 0.01 µM.
Turning to `CCCn1c(=O)c2nc(C(C)Cc3ccc(OCC(=O)NCCN)cc3)[nH]c2n(CCC)c1=O` (stereo not drawn) [Compound 101345, N-(2-Aminoethyl)-2-[4-[2-(2,3,6,9-tetrahydro-1,3-dipropyl-2,6-dioxo-1H-purin-8-yl)propyl]phenoxy]-acetamide], the IC50 on A2-adenosine receptor turned out to be 0.036 µM; on A1-adenosine receptor, 0.014 µM.
Taken in the same sequence, the figures for `CCCn1c(=O)c2nc(C(CC)c3ccc(OCC(=O)O)cc3)[nH]c2n(CCC)c1=O` (stereo not drawn) [Compound 101673, 2-[4-[1-(2,3,6,9-Tetrahydro-1,3-dipropyl-2,6-dioxo-1H-purin-8-yl)propyl]phenoxy]acetic acid] were above 10 µM and 1.18 µM.
Taken in the same sequence, the figures for `CCCn1c(=O)c2nc(C(C)Cc3ccc(OCC(=O)O)cc3)[nH]c2n(CCC)c1=O` (stereo not drawn) [Compound 101699, 2-[4-[2-(2,3,6,9-Tetrahydro-1,3-dipropyl-2,6-dioxo-1H-purin-8-yl)propyl]phenoxy]acetic acid] were 5.7 µM and 0.327 µM.
Taken in the same sequence, the figures for `CCCn1c(=O)c2nc(C(CC)c3ccc(OCC(=O)NCCN)cc3)[nH]c2n(CCC)c1=O` (stereo not drawn) [Compound 102130, N-(2Aminoethyl)-2-[4-[1-(2,3,6,9-tetrahydro-1,3-dipropyl-2,6-dioxo-1H-purin-8-yl)propyl]phenoxy]-acetamide] were 0.06 µM and 0.0044 µM.

As usually defined, the IC50 is the point on the concentration scale where inhibition reaches its midpoint. A higher IC50 goes with lower potency.
